In brackets after ≈: the same amount, converted by molar mass. Read-outs that look alike come from different tables or passages of the source.
Key:
2,2,15 = assay: three days cytotoxicity bioassay against 2,2,15; assay type: cell-based, human; details: for IC50: 72 h, read-out: Cytotoxicity IC50 2,2,15
Description: Adriamycin was used as a standard.

Hep G2 = assay: three days cytotoxicity bioassay against Hep G2; details: for IC50: Homo sapiens, HepG2, 72 h, read-out: Cytotoxicity IC50 Hep G2; for Cytotoxicity IC50 Hep G2: human hepatoma cell line Hep G2, three days bioassay
[1] = human hepatoma cell line 2,2,15, three days bioassay

Compound	IC50 (Hep G2)	Cytotoxicity IC50 2,2,15 (2,2,15; [1])	Cytotoxicity IC50 Hep G2 (Hep G2)	further results
COc1cccc2c1C(=O)c1c(O)c3c(c(O)c1C2=O)C[C@@](O)(C(=O)CO)C[C@@H]3O[C@H]1C[C@H](N)[C@H](O)[C@H](C)O1 [Adriamycin, reference compound]	0.241 µg/mL (≈ 0.443 µM)	–	–	IC50 (2,2,15; [1]): 0.45 µg/mL (≈ 0.828 µM)
CCCCCCCCCCCC[C@@H](O)[C@H]1CC[C@@H]([C@@H](O)CCCCC(=O)CCCCCCCC2=C[C@H](C)OC2=O)O1 [Corossolone (12), Corossolone, reference compound]	0.48 µg/mL (≈ 0.829 µM)	–	–	IC50 (2,2,15; Homo sapiens): 0.284 µg/mL (≈ 0.491 µM)
CCCCCCCCCCCCCC[C@@H](O)[C@H]1CC[C@H]([C@H](O)CC[C@H](O)CCCCCCCC2=C[C@H](C)OC2=O)O1 [Longifolicin (10), Longifolicin, reference compound]	0.000404 µg/mL (≈ 0.000695 µM)	–	–	IC50 (2,2,15; [1]): 0.0049 µg/mL (≈ 0.00844 µM)
CCCCCC(O)C(O)CCCCCC[C@@H](O)[C@H]1CC[C@H](CCCCCCCCCC[C@@H](O)CC2=C[C@H](C)OC2=O)O1 (some centres unmarked) [Muricin A (1), Muricin A]	–	5.13 ng/mL	5.04 µg/mL	times more potent than muricin B against Hep G2 (Hep G2; muricin A (4R-OH) compared with muricin B (4S-OH), Hep G2): 2.5 times
CCCCCC(O)C(O)CCCCCC[C@H](O)[C@@H]1CC[C@H](CCCCCCCCCC[C@H](O)CC2=C[C@H](C)OC2=O)O1 (some centres unmarked) [Muricin B (2), Muricin B]	–	4.29 ng/mL	1.78 µg/mL	–
CCCCCCCC(O)C(O)CC[C@H](O)[C@@H]1CC[C@H](CCCCCCCCCCCC[C@@H](O)CC2=C[C@H](C)OC2=O)O1 (some centres unmarked) [Muricin C (3), Muricin C]	–	3.87 ng/mL	0.499 µg/mL	–
CCCCCCCC(O)C(O)CC[C@H](O)[C@@H]1CC[C@@H](CCCCCCCCCC[C@@H](O)CC2=C[C@H](C)OC2=O)O1 (some centres unmarked) [Muricin D (4), Muricin D]	–	48 ng/mL	0.00066 µg/mL	–
CCCCC(O)C(O)C/C=C\CC[C@H](O)[C@@H]1CC[C@@H](CCCCCCCCCCCC[C@@H](O)CC2=C[C@H](C)OC2=O)O1 (some centres unmarked) [Muricin F (6), Muricin F]	–	3.86 ng/mL	0.0428 µg/mL	cytotoxicity compared with muricin C against 2,2,15 (2,2,15; comparison in words, 2,2,15): more cytotoxic than muricin C; cytotoxicity compared with muricin C against Hep G2 (Hep G2; comparison in words, Hep G2): more cytotoxic than muricin C
Corossolin [Corossolin (11), reference compound]	–	234 ng/mL	–	–

From patent US7223792B2, “Cytotoxic annonaceous acetogenins from Annona muricata” (Advpharma Inc., priority 2001, dated 2007)
